This note sets out measurements from paper PMC7189608, “FaPAO5 regulates Spm/Spd levels as a signaling during strawberry fruit ripening” (Plant Direct, 2020).

For the assay, the target named is T1, FaPAO5.
T1 construct: 105 kDa fusion protein
Put plainly: isothermal titration calorimetry. It is filed as binding, Fragaria x ananassa. Particulars: pH 7.4, 30 °C, 200 mM NaCl, 20 mM Tris, 0.5 mM EDTA, 10 mM maltose; MBP fusion protein (10 µM in Methods, 20 µM in Results); ligand 100 µM. An excerpt: isothermal titration calorimetry on FaPAO5 | the binding of FaPAO5 to Spm and Spd followed a saturation kinetics curve
(Isothermal titration calorimetry measures the heat released or taken up as one component is titrated into another.)

In the case of `NCCCCNCCCN` [Spd], the Kd was 0.29 µM.
Turning to `NCCCNCCCCNCCCN` [Spm], the equilibrium dissociation constant (Kd) was 0.21 µM.

The term Kd denotes the concentration at which binding is half-saturated. Read a high Kd as lower affinity.
